Test results as given in ChEMBL document CHEMBL4265931, “Identification of dual Sigma1 receptor modulators/acetylcholinesterase inhibitors with antioxidant and neurotrophic properties, as neuroprotective agents” (Eur J Med Chem, 2018).
pIC50, pKi: −log10 of the molar value. The source made the active and inactive calls. No cut-off for these calls is given here.

Tests used:
[1] = molecular target: Sigma non-opioid intracellular receptor 1 (Cavia porcellus, UniProt Q60492); experiment: Displacement of [3H](+)-pentazocine from S1R in guinea pig brain cortex membranes after 120 mins by scintillation counting assay; assay type: cell membranes
Sigma non-opioid intracellular receptor 1, sequence (Q60492 whole entry): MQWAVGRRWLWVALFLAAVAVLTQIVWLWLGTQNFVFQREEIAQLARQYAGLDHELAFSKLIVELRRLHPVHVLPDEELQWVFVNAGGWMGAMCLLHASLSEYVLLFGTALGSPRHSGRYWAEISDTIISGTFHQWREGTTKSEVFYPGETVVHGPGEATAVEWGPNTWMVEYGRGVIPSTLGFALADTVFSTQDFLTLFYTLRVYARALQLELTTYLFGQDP

[2] = molecular target: T1, Sigma intracellular receptor 2 (Rattus norvegicus, UniProt Q5U3Y7); experiment: Displacement of [3H]-DTG from S2R in rat liver membranes after 120 mins by scintillation counting assay; assay type: cell membranes, Membrane
T1 sequence (Q5U3Y7 whole entry): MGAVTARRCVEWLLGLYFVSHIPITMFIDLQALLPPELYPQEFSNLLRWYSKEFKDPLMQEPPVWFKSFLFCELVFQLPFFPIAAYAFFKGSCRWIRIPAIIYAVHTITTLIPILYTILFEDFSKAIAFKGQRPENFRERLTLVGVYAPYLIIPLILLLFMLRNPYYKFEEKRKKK

[3] = Selectivity ratio of Ki for S2R in rat liver membranes to Ki for S1R in guinea pig brain cortex membranes; assay type: cell membranes
Acetylcholinesterase = Acetylcholinesterase (Electrophorus electricus, UniProt O42275); experiment: Inhibition of electric eel AChE using acetylthiocholine iodide as substrate preincubated for 5 mins followed by substrate addition and measured after 2 mins by Ellman's method
Acetylcholinesterase, sequence (O42275 whole entry): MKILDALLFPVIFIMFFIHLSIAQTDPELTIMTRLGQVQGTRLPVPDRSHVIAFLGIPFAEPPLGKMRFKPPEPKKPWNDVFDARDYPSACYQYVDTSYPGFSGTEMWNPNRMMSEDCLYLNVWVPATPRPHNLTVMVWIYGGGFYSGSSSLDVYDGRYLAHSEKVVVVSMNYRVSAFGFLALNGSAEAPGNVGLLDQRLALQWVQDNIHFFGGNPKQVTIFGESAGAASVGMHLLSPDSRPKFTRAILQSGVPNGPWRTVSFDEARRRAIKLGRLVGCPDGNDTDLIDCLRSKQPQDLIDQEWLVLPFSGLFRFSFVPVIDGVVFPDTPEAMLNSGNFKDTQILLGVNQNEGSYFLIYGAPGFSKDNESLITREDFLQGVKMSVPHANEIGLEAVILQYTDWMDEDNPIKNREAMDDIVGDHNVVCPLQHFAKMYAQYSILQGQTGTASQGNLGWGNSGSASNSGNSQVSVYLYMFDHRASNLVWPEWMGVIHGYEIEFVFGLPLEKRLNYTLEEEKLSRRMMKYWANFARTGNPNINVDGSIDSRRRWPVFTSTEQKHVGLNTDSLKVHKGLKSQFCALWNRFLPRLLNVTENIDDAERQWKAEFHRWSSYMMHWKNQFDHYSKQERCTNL

[4] = Displacement of [3H]-ifenprodil from GluN1a/GluN2B (unknown origin) expressed in mouse L(tk-) cell membranes after 120 mins by scintillation counting analysis; parameters: species or system Homo sapiens
[5] = Antioxidant activity assessed as DPPH free radical scavenging at 465 uM after 20 mins by UV-Vis spectrophotometric analysis relative to control; assay type: functional
SH-SY5Y [6] = experiment: Cytotoxicity against human SH-SY5Y cells assessed as reduction in cell viability after 24 hrs by MTS assay; assay type: cell-based; conditions: human, sh-sy5y
SH-SY5Y [7] = experiment: Cytotoxicity against human SH-SY5Y cells assessed as reduction in cell viability after 48 hrs by MTS assay; assay type: cell-based; conditions: human, sh-sy5y
in vitro [8] = conditions: human, SH-SY5Y cells
Description: Cytotoxicity against human SH-SY5Y cells assessed as cell viability at 10 uM after 24 hrs by MTS assay relative to control

in vitro [9] = conditions: human, SH-SY5Y cells; remark: listed apart in the source
in vitro [10] = conditions: human, SH-SY5Y cells; remark: listed apart in the source
Description: Cytotoxicity against human SH-SY5Y cells assessed as cell viability at 50 uM after 24 hrs by MTS assay relative to control

in vitro [11] = conditions: human, SH-SY5Y cells; remark: listed apart in the source
Description: Cytotoxicity against human SH-SY5Y cells assessed as cell viability at 10 uM after 48 hrs by MTS assay relative to control

in vitro [12] = conditions: human, SH-SY5Y cells; remark: listed apart in the source
in vitro [13] = conditions: human, SH-SY5Y cells; remark: listed apart in the source
Description: Cytotoxicity against human SH-SY5Y cells assessed as cell viability at 50 uM after 48 hrs by MTS assay relative to control

[14] = Antioxidant activity assessed as DPPH free radical scavenging after 20 mins by UV-Vis spectrophotometric analysis; assay type: functional
SH-SY5Y [15] = experiment: Neuroprotection against H2O2-induced oxidative stress in human SH-SY5Y cells assessed as reduction in ROS generation at 10 uM preincubated for 3 hrs followed by DCFDA addition for 45 mins and subsequent co-treatment with compound and H2O2 for 24 hrs by fluorescence assay relative to control; assay type: functional

Structure (SMILES) | pKi [1] | pKi [2] | Ratio Ki [3] | pIC50 (Acetylcholinesterase) | pKi [4] | Activity [5] [%] | Activity (SH-SY5Y [6]) | Activity (SH-SY5Y [7]) | viability at 24 h, 10 µM (in vitro [8]) [%] | viability at 24 h, 25 µM (in vitro [9]) [%] | viability at 24 h, 50 µM (in vitro [10]) [%] | viability at 48 h, 10 µM (in vitro [11]) [%] | viability at 48 h, 25 µM (in vitro [12]) [%] | viability at 48 h, 50 µM (in vitro [13]) [%] | pIC50 [14] | Activity (SH-SY5Y [15])
O=C(CCN1CCC(Cc2ccccc2)CC1)c1ccc2ccccc2c1 | 6.68 | 5.21 | 29.4 | 4.73 | < 6.00 | – | – | – | – | – | – | – | – | – | – | –
Cl.O=C(CCCN1CCC(Cc2ccccc2)CC1)c1ccc2ccccc2c1 | 7.62 | 7.24 | 2.4 | – | 7.59 | 31.6 | Dose-dependent effect | Dose-dependent effect | 80.2 | 86 | 86 | 77 | 57 | 61 | – | –
O=C(CCCN1CCC(Cc2ccccc2)CC1)c1ccc(-c2ccccc2)cc1 | 6.87 | 6.15 | 5.2 | 4.86 | 7.02 | – | – | – | – | – | – | – | – | – | – | –
O=C(CCN1CCCCC1)c1ccccc1 | 6.77 | 6.13 | 4.4 | – | < 6.00 | – | – | – | – | – | – | – | – | – | – | –
COc1ccc(C(=O)CCN2CCCCC2)cc1.Cl | 8.10 | 5.68 | 256 | – | 5.77 | 14.4 | Dose-dependent effect | Dose-dependent effect | 119 | 86 | 63 | 104 | 49.4 | 43.4 | – | –
O=C(CCN1CCC(Cc2ccccc2)CC1)c1ccc(-c2ccccc2)cc1 | 6.78 | 5.41 | 23.4 | – | < 6.00 | – | – | – | – | – | – | – | – | – | – | –
Cl.O=C(CCCN1CCC(Cc2ccccc2)CC1)c1ccccc1 | 8.05 | 7.33 | 5.2 | 4.88 | 7.41 | 29.3 | Dose-dependent effect | Dose-dependent effect | 100 | 100 | 87 | 96 | 95 | 54 | – | –
COc1ccc(C(=O)CN2CCC(Cc3ccccc3)CC2)cc1.Cl | 7.57 | 5.70 | 74 | – | 7.80 | 65.6 | Dose-dependent effect | Dose-dependent effect | 103 | 98.4 | 87 | 85.5 | 69.3 | 52.5 | 3.83 | –
Cl.O=C(CCN1CCCCC1)c1ccc2ccccc2c1 | – | 6.75 | 81 | – | < 6.00 | 18.3 | Dose-dependent effect | Dose-dependent effect | 98.6 | 66.4 | 65.4 | 70.3 | 42 | 40 | – | –
Cl.O=C(CCN1CCOCC1)c1ccc2ccccc2c1 | – | < 6.00 | – | – | < 6.00 | 8.14 | Dose-dependent effect | Dose-dependent effect | 77 | 48 | 49 | 79 | 38 | 37 | – | –
COc1ccc(C(=O)CCCN2CCC(Cc3ccccc3)CC2)cc1.Cl | 7.51 | 6.95 | 6.8 | 4.89 | 7.02 | 12.9 | Dose-dependent effect | Dose-dependent effect | 100 | 100 | 84.4 | 97.3 | 87 | 61 | – | –
COc1ccc2cc(C(=O)CCCN3CCC(Cc4ccccc4)CC3)ccc2c1 | 7.17 | 6.97 | 1.6 | 5.37 | 7.70 | – | – | – | – | – | – | – | – | – | – | –
COc1cccc(C(=O)CN2CCC(Cc3ccccc3)CC2)c1 | 6.88 | 5.82 | 11.5 | 4.48 | 7.96 | – | – | – | – | – | – | – | – | – | – | –
C[C@H](CCN1CCCCC1)c1ccc(-c2ccccc2)cc1 | – | 7.35 | 25 | – | < 6.00 | – | – | – | 100 | 100 | 86 | 84 | 77.1 | 57.3 | – | inactive
O=C(CN1CCC(Cc2ccccc2)CC1)c1ccccc1 | 7.12 | 5.64 | 30.7 | – | 6.67 | – | – | – | – | – | – | – | – | – | – | –
O=C(CCN1CCOCC1)c1ccccc1 | 6.22 | < 6.00 | – | – | < 6.00 | – | – | – | – | – | – | – | – | – | – | –
COc1ccc(C(=O)CCN2CCC(Cc3ccccc3)CC2)cc1.Cl | 7.96 | 5.62 | 218 | 4.66 | 6.70 | 2.8 | Dose-dependent effect | Dose-dependent effect | 99.9 | 63.9 | 56.5 | 97.4 | 50.2 | 44.7 | – | inactive
COc1ccc2cc(C(=O)CN3CCC(Cc4ccccc4)CC3)ccc2c1 | 6.54 | 5.85 | 4.9 | – | < 6.00 | – | – | – | – | – | – | – | – | – | – | –
COc1cccc(C(=O)CCCN2CCC(Cc3ccccc3)CC2)c1.Cl | 7.77 | 7.37 | 2.5 | 5.12 | 7.31 | 32 | Dose-dependent effect | Dose-dependent effect | 100 | 100 | 98 | 94.8 | 85.6 | 65 | – | –
CC(C(O)c1ccc(O)cc1)N1CCC(Cc2ccccc2)CC1 (centres undefined) [IFENPRODIL] | – | – | – | – | 8.00 | – | – | – | – | – | – | – | – | – | – | –
Cl.O=C(CCN1CCC(Cc2ccccc2)CC1)c1ccccc1 | 7.80 | 5.24 | 363 | – | 7.41 | 25.9 | Dose-dependent effect | Dose-dependent effect | 93 | 48 | 49 | 106 | 44 | 36 | – | –
O=C(CN1CCC(Cc2ccccc2)CC1)c1ccc(-c2ccccc2)cc1 | – | < 6.00 | – | – | < 6.00 | – | – | – | – | – | – | – | – | – | – | –
Cl.O=C(CCN1CCOCC1)c1ccc(-c2ccccc2)cc1 | – | < 6.00 | – | – | 6.14 | 22.1 | Dose-dependent effect | Dose-dependent effect | 100 | 73 | 83.3 | 100 | 66 | 62.4 | – | –
COc1ccc(C(=O)CCN2CCOCC2)cc1 | 6.52 | < 6.00 | – | – | < 6.00 | – | – | – | – | – | – | – | – | – | – | –
